A short description of data set [1]: Stability of crystals: strong light irradiation test (4,500±500 Lx). The class given is physicochemical. The source says:
(§1) The conditions and methods for detecting the relevant substances involved in the present invention are high performance liquid chromatography determination.
The distance was adjusted so that the light intensity was 4,500±500 Lx. The samples were taken and tested on day 5 and day 10, respectively, and the results were compared with that of day 0.

A short description of data set [2]: Stability of crystals: high humidity test (RH 75±5%). Type of data set: physicochemical. The note with it: around 25° C.
Excerpt: as §1
The samples were taken and tested on day 5 and day 10, respectively, and the results were compared with that of day 0.

The nature of data set [3]: Hygroscopicity test (Chinese Pharmacopoeia 2020). The class given is physicochemical. The method, then:
The test was carried out with reference to the requirements of hygroscopicity test in the General Technical Requirements of Part IV of the Chinese Pharmacopoeia 2020 Edition.
Methods: A dry stoppered glass weighing flask (outer diameter 50 mm, height 15 mm) was placed in a suitable 25° C.±1° C. constant temperature desiccator (with ammonium chloride or ammonium sulfate saturated solution placed in the lower part) or an artificial climate chamber (with a set temperature of 25° C.±1° C. and a relative humidity of 80%±2%) prior to the test, and the weight (m1) was weighed precisely.
The thickness of the test sample was generally 1 mm, and the weight (m2) was weighed precisely. The weighing flask was left open, and was placed in the above constant temperature and humidity conditions together with the cap of the flask for 24 hours.
The weighing flask was closed with the cap and weighed precisely (m3).

A further data set addresses T1, BuchE (Rattus norvegicus, UniProt Q9JKC1).
T1 construct: The effect of Huperzine B on BuchE activity in the serum of rats; from tissue; host or cells: SD rat serum (ex vivo after gavage)
Nature of the data set: Cholinesterase inhibitory activity in vivo: BuchE activity in rat serum after gavage. Set-up: species or system SD rats. The method, then: Experimental animals: SD rats, clean grade, male, body weight 180-200 g, provided by Shanghai SLAC Laboratory Animal Co., Ltd, free to drink and ingest during the experimental period, indoor temperature 22-24° C., humidity 45-70%.
Main reagents: S-Butyrylthiocholine iodide, S-Acetylthiocholine iodide, Kaumas Brilliant Blue, sodium hydroxide, ethyl carbamate (urethane), phosphoric acid, sodium chloride, sodium bicarbonate, potassium dihydrogen phosphate, ethanol, sodium dodecyl sulfate, 5,5′-Dithiobis-(2-nitrobenzoic acid) (DTNB), hydrochloric acid; the above chemical reagents were purchased from Sinopharm Chemical Reagent Co., Ltd. Physiological saline, product of Shanghai Bangjing Industry Co., Ltd; bovine serum albumin, purchased from Meilun Biologicals.
The equation for calculating the activity and the activity rate of “butyrylcholinesterase” was the same as that for “acetylcholinesterase”.
Statistical analysis: SPSS 18 statistical software and EXCEL were applied. Measurement data were expressed as “mean±standard deviation (x±s)”, t-test was used for comparison between two groups, and LSD method was used for pairwise comparison between groups when there was homogeneity of variance, and Dunnett's method was used for analysis when there was heterogeneity of variance. P<0.05 indicates significant differences.

Data set [4] is described as follows: Stability of crystals: high temperature test (60° C.). The class given is physicochemical.
Excerpt: as §1
The samples were taken and tested on day 5 and day 10, respectively, and the results were compared with those on day 0.The results are shown in Table 5.

[5] abbreviates: 25° C.±1° C., relative humidity 80%±2%, 24 hours.

T1 sequence (Q9JKC1 24-597): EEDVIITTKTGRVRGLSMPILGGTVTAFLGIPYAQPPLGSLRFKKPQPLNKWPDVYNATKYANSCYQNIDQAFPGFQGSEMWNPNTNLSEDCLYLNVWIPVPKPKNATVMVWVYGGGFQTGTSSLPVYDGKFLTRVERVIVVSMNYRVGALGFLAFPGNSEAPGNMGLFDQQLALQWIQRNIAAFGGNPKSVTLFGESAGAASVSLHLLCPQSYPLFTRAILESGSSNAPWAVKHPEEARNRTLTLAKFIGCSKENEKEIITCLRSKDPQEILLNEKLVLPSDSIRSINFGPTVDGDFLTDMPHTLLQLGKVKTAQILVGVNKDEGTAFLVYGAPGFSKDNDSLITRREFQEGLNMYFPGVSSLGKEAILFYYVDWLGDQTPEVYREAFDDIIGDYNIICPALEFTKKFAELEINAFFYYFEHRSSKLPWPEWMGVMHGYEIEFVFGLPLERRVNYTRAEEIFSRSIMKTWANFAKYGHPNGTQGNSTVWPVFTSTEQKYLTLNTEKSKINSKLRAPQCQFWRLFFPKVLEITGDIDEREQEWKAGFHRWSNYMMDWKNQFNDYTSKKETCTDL

`CC1=CC2Cc3[nH]c(=O)ccc3C3(C1)NCCCC23` [Crystal form A, (4aR, 5R, 10bR)-1,2,3,4,4a,4,6,10b octahydro-12-methyl-5,10b-propeno-1,7-phenanthrolin-8 (7H)-one]: the Appearance entry in data set [1] (day 0), in data set [1] (day 5), in data set [1] (day 10), in data set [2] (day 0), in data set [2] (day 5) and in data set [2] (day 10) was “Off-white powder” in each case. Also, the Appearance result in data set [4] (day 0), in data set [4] (day 5) and in data set [4] (day 10) was “Off-white” each time. In addition, the Content was found to be 100.1% in data set [1] (day 0); 99.8% in data set [1] (day 5); 98.9% in data set [1] (day 10); 100.1% in data set [2] (day 0); 100.2% in data set [2] (day 5); 99.9% in data set [2] (day 10). The Content in data set [4] (day 0) stood at 100.1%; in data set [4] (day 5), 100.2%; in data set [4] (day 10), 99.7%. Moreover, the relevant substances is 0.12 in data set [1] (day 0); 0.22 in data set [1] (day 5); 0.28 in data set [1] (day 10); 0.12 in data set [4] (day 0); 0.19 in data set [4] (day 5); 0.21 in data set [4] (day 10). The Moisture in data set [2] (day 0) worked out at 6.93%; in data set [2] (day 5) it was 6.95%; in data set [2] (day 10), 6.98%. Besides, the “Conclusion: (hygroscopicity)” value in data set [3] (setting [5]) is recorded as “No or almost no”. Moreover, the “Percentage of weight gain (%)” value in data set [3] (setting [5]) is recorded as 0.05%. Moreover, the “hygroscopicity (in words)” value in data set [3] (compared with Huperzine B crystal form B) is recorded as “low hygroscopicity”. Also, the “effect on BuchE activity in the rat serum (in words)” value on BuchE (rat serum) is “certain inhibitory effect”.

With `CC1=CC2Cc3[nH]c(=O)ccc3C3(C1)NCCCC23` [Crystal form B, (4aR, 5R, 10bR)-1,2,3,4,4a,4,6,10b octahydro-12-methyl-5,10b-propeno-1,7-phenanthrolin-8 (7H)-one], the Appearance entry in data set [1] (day 0), in data set [1] (day 5), in data set [1] (day 10), in data set [2] (day 0), in data set [2] (day 5) and in data set [2] (day 10) was “Off-white powder” each time. For the same compound, the Appearance entry in data set [4] (day 0), in data set [4] (day 5) and in data set [4] (day 10) was “Off-white” each time. For the same compound, the Content in data set [1] (day 0) was 99.8%; in data set [1] (day 5), 99.5%; in data set [1] (day 10), 98.6%; in data set [2] (day 0) it was 99.8%; in data set [2] (day 5), 99.7%; in data set [2] (day 10) it was 99.6%. Also, the Content in data set [4] (day 0) was found to be 99.8%; in data set [4] (day 5) it was 99.5%; in data set [4] (day 10), 98.9%. Moreover, the relevant substances was 0.18 in data set [1] (day 0); 0.32 in data set [1] (day 5); 0.49 in data set [1] (day 10); 0.18 in data set [4] (day 0); 0.29 in data set [4] (day 5); 0.41 in data set [4] (day 10). Also, the Moisture in data set [2] (day 0) is listed as 6.13%; in data set [2] (day 5), 7.13%; in data set [2] (day 10) it was 7.53%. In data set [3] (setting [5]), the “Percentage of weight gain (%)” value amounted to 2.88%.

For `CC1=CC2Cc3[nH]c(=O)ccc3C3(C1)NCCCC23` [hupB, (4aR, 5R, 10bR)-1,2,3,4,4a,4,6,10b octahydro-12-methyl-5,10b-propeno-1,7-phenanthrolin-8 (7H)-one], the inhibition at 0.12 mg/kg at BuchE (po, rat serum BuchE, 0.12 mg/kg by gavage, x±s, read-out: Inhibition rate (%)) amounted to 1 ± 46.5%. The inhibition at 0.24 mg/kg on BuchE (po, rat serum BuchE, 0.24 mg/kg by gavage, x±s, read-out: Inhibition rate (%)) was 19.9 ± 28.1%. In addition, the inhibition at 0.48 mg/kg on BuchE (po, rat serum BuchE, 0.48 mg/kg by gavage, x±s, read-out: Inhibition rate (%)) worked out at 29.2 ± 13.7%. Moreover, the “Serum BuchE (nmol/min/mg protein)” value came out at 6.83 ± 3.21 nmol/min/mg protein on BuchE (rat serum, 0.12 mg/kg by gavage, x±s); 5.53 ± 1.94 nmol/min/mg protein at BuchE (rat serum, 0.24 mg/kg by gavage, x±s); 4.88 ± 0.94 nmol/min/mg protein at BuchE (rat serum, 0.48 mg/kg by gavage, x±s).

Values taken from patent US20250084082A1, “HUPERZINE B CRYSTAL AND PREPARATION AND APPLICATION THEREOF” (priority 2021, published 2025).
